The test system of one assay is Litomosoides sigmodontis. Kind of assay: Litomosoides sigmodontis natural infection in vivo model. The conditions noted are these: L. sigmodontis, necropsy day 63, QD. Here is the method: We characterized the in vitro ADME properties of 8a in preparation for evaluation of this compound in our primary in vivo model in gerbils. […] We were pleased to find that 8a was able to kill 100% of both male and female worms in the gerbil peritoneum when dosed subcutaneously at 100 mg/kg/day for 14 days as a suspension in a nonsolubilizing HEC/Tween vehicle. […] The subsequent assessment of the pharmacokinetics of 8a from these two dosing paradigms provided an interesting observation that we believe to be important in understanding the PK–PD requirements for achieving efficacy in this animal model. […] We had made the same observation in a positive control group using flubendazole at a subcutaneous dose of 10 mg/kg/day for 5 days in the nonsolubilizing HEC/Tween vehicle, namely, that plasma levels of flubendazole were maintained above the in vitro IC50 (4 nM) for over 42 days, consistent with data reported in the literature.[43] […] We next examined 8a in two additional in vivo models, the first where L3 B. pahangi larvae were injected into the peritoneum of gerbils and allowed to develop into adult worms[45] and a second where gerbils were naturally infected by the filarial nematode Litomosoides sigmodontis.[46],[47] In both of these models, 8a was administered subcutaneously at 100 mg/kg for 14 days or orally at 100 mg/kg for 28 days as a suspension. […] Additionally, when plasma obtained from treated animals at necropsy was analyzed for 8a, we observed an outcome similar to that observed in the adult implantation model, e.g., that measurable levels were present at this time point in the subcutaneous-dosed groups but not in the orally dosed groups, weeks after administration of the drug. In a final L. sigmodontis experiment with 8a, we dosed the compound subcutaneously at 300 mg/kg for 7 days as a suspension. […]
administered their doses at the same time each day and are allowed to feed and drink ad libitum. Gerbils were euthanized following approved institutional protocols. Euthanized animals were weighed and examined for external and visceral pathologies.
The adult Brugia worms were recovered by opening the body cavity and washing the peritoneal cavity with 100 mL of phosphate buffered saline. Male and female worms were counted using a
Litomosoides sigmodontis natural infection in vivo model
All animal experiments with L. sigmodontis were conducted at the Institute for Medical Microbiology, Immunology and Parasitology
(IMMIP), University Hospital of Bonn, in accordance to the European Union animal welfare guidelines. All protocols were approved by the local authorities (Landesamt für Natur, Umwelt […]
from Janvier (Saint-Berthevin, France) and were housed at the animal facility of the IMMIP in individually ventilated cages on a 12h light/dark cycle with food and water ad libidum. Mice were infected at 6-8 weeks of age via exposure to the natural mite vector Ornithonyssus bacoti containing infectious L. sigmodontis
L3 larvae. To compare the infection, the same batch of mite-containing bedding was used to infect all animals of one experiment. 35 days post infection, a time point adult worms have developed within the thoracic cavity, mice were treated per oral gavage with the test compounds at concentrations indicated in the result section. As a vehicle, 1% CMC + 0.1% Tween80 was used. Negative controls were treated with vehicle and as positive control, mice were treated orally with doxycycline
(Sigma) in 10% DMSO/1xPBS. Necropsies were performed at 64-77

For assay [1], the system named is G2/M arrest (functional indicator of interaction with mammalian tubulin). Kind of assay: mammalian G2/M arrest assay. The format is cell-based. The following applies: Table 1; read-out: G2/M arrest IC50. The procedure:
The first three analogs from the benzimidazole 5-carboxylic acid, namely 7a (from 6-aminobenzoxaborole), 8a (from 6-aminomethyl-3,3-dimethylbenzoxaborole), and 8b (from 3-aminomethylbenzoxaborole), were prepared and tested in an Onchocerca volvulus L3 larval molting assay[34],[35] and a mammalian G2/M arrest assay[36] to evaluate antifilarial activity and selectivity, respectively (Table 1). O. volvulus is the causative agent of river blindness, and the L3 molting assay is the only widely available and reproducible assay of this filariid, the target of novel macrofilaricidal drugs.[34],[35] Other animal models (e.g., Brugia in gerbils) recapitulate aspects of lymphatic filariasis and are also used as surrogate screens for O. volvulus infections. Of the three compounds tested, 8a emerged as the most attractive compound on the basis of potency and selectivity.
Similarly, changing the point of attachment on the benzoxaborole core from 6- to 5- to afford 8d was also accompanied by increased potency in both the O. volvulus and G2/M arrest assays.

[2] abbreviates: 100 mg/kg × 28 days, PO (suspension).
[3] abbreviates: 300 mg/kg × 7 days, SC (suspension).

For the compound `COC(=O)Nc1nc2cc(C(=O)c3ccc(F)cc3)ccc2[nH]1` [compound 1, Flubendazole, reference compound], in the assay with Litomosoides sigmodontis (10 mg/kg × 5 days, SC), the adult worm reduction is on record as 100%/100% and the “animals with no worms” value is 100%/100%. Besides, the IC50 in assay [1] was found to be 0.67 µM.
Regarding `COC(=O)Nc1nc2cc(C(=O)NCc3ccc4c(c3)B(O)OC4(C)C)ccc2[nH]1` [8a], in the assay with Litomosoides sigmodontis (setting [2]), the adult worm reduction result is recorded as “–135.3%” and the “animals with no worms” value stood at 0%. In addition, in the assay with Litomosoides sigmodontis (setting [3]), the adult worm reduction was found to be 100%/100% and the “animals with no worms” value is reported as 100%/100%. In assay [1], the IC50 stood at 13 µM.

(Values after publication PMC7026885, “Macrofilaricidal Benzimidazole–Benzoxaborole Hybrids as an Approach to the Treatment of River Blindness: Part 1. Amide Linked Analogs” (ACS Infectious Diseases, 2019).)
